Results from patent publication US11304989B2, “Peptides for use in the treatment of viral infections” (priority 2017, dated 2022).
Values joined by “and” are separate entries in the source; they are usually repeats but may differ in a detail not shown here. Equal values may be shown once. Read-outs that look alike come from different tables or passages of the source.

Key:
[1] = test system: influenza A H5N1 Duck/MN/1525/81 virus; conditions: mouse, in vivo; cited from earlier work
[2] = test system: H1N1/A/California/04/09 influenza virus; set-up: species or system BALB/c mice; conditions: mouse, in vivo
[3] = test system: influenza A H5N1 Duck/MN/1525/81 virus; set-up: species or system BALB/c mice; conditions: mouse, in vivo
[4] = test system: inflammatory cytokines IL2, IFN-γ, TNF-α; conditions: reference [9]; cited from earlier work
H5N1 influenza virus = test system: H5N1 influenza virus; set-up: species or system BALB/c mice; conditions: mouse, in vivo
[5] = test system: cytokine and chemokine levels in lungs of mice infected with H5N1 influenza virus; set-up: species or system BALB/c mice; conditions: mouse, in vivo
[6] = test system: H1N1/A/California/04/09 influenza virus; experiment: Body weight of mice in lethal H1N1 influenza infection; assay type: in vivo, BALB/c mice; conditions: FIG. 3A, 3B

Compound: CCOC(=O)C1=C[C@@H](OC(CC)CC)[C@H](NC(C)=O)[C@@H](N)C1 [Oseltamivir, reference compound]
- survival routinely yielded by this Oseltamivir dose [1]: 10-30%
- survival [2]: 30%
- survival [3]: 70% and 50%

Compound: YVNQTDIY [p4TA]
- biological activity compared with p2TA [4]: biological activity similar to that of p2TA

Compound: SNGTIIHVK [p5TA]
- biological activity compared with p2TA [4]: biological activity similar to that of p2TA

Compound: HKGLDSAV [p3TA]
- biological activity compared with p2TA [4]: biological activity similar to that of p2TA

Compound: (D-Ala)-SPMLVAYD-(D-Ala) (XSPMLVAYDX; D-Ala at both termini; (D-A)-p2TA-(D-A); (1)..(1) X equals to D-Ala; (10)..(10) X equals to D-Ala)
- arterial oxygen saturation level (H5N1 influenza virus): significantly improved
- oxygen saturation (lung function) (H5N1 influenza virus): significant improvement in lung function
- protection [2]: did not prove protective
- IFN-γ level in lungs [5]: significantly reduce
- IL-1α level in lungs [5]: significantly reduce
- IL-1β level in lungs [5]: significantly reduce
- IL-6 level in lungs [5]: significantly reduce
- IL-10 level in lungs [5]: did not significantly reduce
- monocyte chemoattractant protein-1 (MCP-1) level in lungs [5]: significantly reduce
- prolongation of survival over untreated control [3]: moderate, dose-dependent prolongation of survival
- protection [3]: no protection
- effect on death ([3]; ip): delayed death
- survival ([3]; ip): 30%
- recovery from infection-induced weight loss ([6]; dose-dependent, after day 8): partial recovery from infection-induced weight loss
- weight gain by day 17 ([6]; p2TA 10 μg per mouse, Ribavirin 75 mg/kg i.p.): ~20%
